Reference: US20060263802A1 (priority 2003, published 2006)

Tests used:
Format in all cases: binding
[1] = test system: human monoclonal antibody CR57
[2] = test system: human monoclonal antibody CR57; remark: listed apart in the source
[3] = test system: human monoclonal antibody CRJB
[4] = test system: human monoclonal antibody CRJA
[5] = test system: human monoclonal antibody CRJB; remark: listed apart in the source
[6] = test system: human monoclonal antibody CRJA; remark: listed apart in the source

Sequence | Binding of CR57 to linear peptide (PEPSCAN-ELISA signal) [1] | Binding of CR57 (10 μg/ml) to looped/cyclic peptide (PEPSCAN-ELISA) [2] | Binding of CRJB to linear peptide (PEPSCAN-ELISA signal) [3] | Binding of CRJA to linear peptide (PEPSCAN-ELISA signal) [4] | Binding of CRJB (10 μg/ml) to looped/cyclic peptide (PEPSCAN-ELISA) [5] | Binding of CRJA (10 μg/ml) to looped/cyclic peptide (PEPSCAN-ELISA) [6] | Binding of human monoclonal antibody CR57 to linear peptide (PEPSCAN-ELISA signal) [1] | Binding of CR57 to looped/cyclic peptide (PEPSCAN-ELISA signal) [2] | Binding of human monoclonal antibody CRJB to linear peptide (PEPSCAN-ELISA signal) [3] | Binding of human monoclonal antibody CRJA to linear peptide (PEPSCAN-ELISA signal) [4] | Binding of CRJB to looped/cyclic peptide (PEPSCAN-ELISA signal) [5] | Binding of CRJA to looped/cyclic peptide (PEPSCAN-ELISA signal) [6] | Binding of CR57 (10 μg/ml) to looped/cyclic peptide (PEPSCAN-ELISA signal) [2] | Binding of CRJB (10 μg/ml) to looped/cyclic peptide (PEPSCAN-ELISA signal) [5] | Binding of CRJA (10 μg/ml) to looped/cyclic peptide (PEPSCAN-ELISA signal) [6] | binding of antibody CR57 to looped/cyclic peptide (PEPSCAN OD) [2]
VDERGLYKSLKGACK | 50 | 105 | 108 | 82 | 80 | 96 | – | – | – | – | – | – | – | – | – | –
GLRLMDGTWVAMQTS | 104 | 120 | 138 | 108 | 99 | 100 | – | – | – | – | – | – | – | – | – | –
GKRASKGSETCGFVD | 92 | 82 | 124 | 97 | 71 | 93 | – | – | – | – | – | – | – | – | – | –
GKAYTIFNKTLMEAD | 76 | 114 | 127 | 100 | 100 | 107 | – | – | – | – | – | – | – | – | – | –
LESIMTTKSVSFRRL | 48 | 94 | 114 | 94 | 78 | 91 | – | – | – | – | – | – | – | – | – | –
VHPLADPSTVFKDGD | – | – | – | – | – | – | 98 | 107 | 138 | 111 | 79 | 99 | – | – | – | –
FVDERGLYKSLKGAC | 86 | 97 | 121 | 116 | 79 | 92 | – | – | – | – | – | – | – | – | – | –
GKCSGVAVSSTYCST | 92 | – | 143 | 103 | – | – | – | – | – | – | – | – | 79 | 74 | 97 | –
GYVTTTFKRKHFRPT | 70 | – | 123 | 87 | – | – | – | – | – | – | – | – | 200 | 138 | 101 | clearly bound
TNSRGKRASKGSETC | 68 | – | 108 | 89 | – | – | – | – | – | – | – | – | 107 | 104 | 104 | –
EADAHYKSVRTWNEI | 58 | 78 | 97 | 79 | 76 | 63 | – | – | – | – | – | – | – | – | – | –
NKTLMEADAHYKSVR | 104 | 120 | 116 | 94 | 97 | 98 | – | – | – | – | – | – | – | – | – | –
LLESSVIPLVHPLAD | 72 | 93 | 117 | 92 | 76 | 91 | – | – | – | – | – | – | – | – | – | –
IILGPDGNVLIPEMQ | 85 | 99 | 118 | 80 | 83 | 107 | – | – | – | – | – | – | – | – | – | –
VGYVTTTFKRKHFRP | 75 | – | 113 | 80 | – | – | – | – | – | – | – | – | 117 | 85 | 100 | –
